Consider 26 compounds from ChEMBL document CHEMBL5252512, “Recent Progress in the Development of HIV-1 Protease Inhibitors for the Treatment of HIV/AIDS” (J Med Chem, 2016).

pEC50, pIC50, pKi: −log10 of the molar value. Where a SMILES comes first, the peptide text is derived from it. Bridges are numbered along the chain shown (N, C = ends). Roman numbers before positions name the chains, in order. [ ]: non-standard residue; d: D form. The star is where a group is joined. ξ: configuration not given here. C16 diacid = O=C(O)CCCCCCCCCCCCCCC(=O)*; Phe(4-NH2) = Nc1ccc(C[C@H](N)C(=O)O)cc1; Ile(3ξ) = CCC(C)[C@H](N)C(=O)O; NHPhenethyl = c1ccc(CCN*)cc1 Where only a bound is given, the exact number is not on record here.

The target in experiment [1] is T1, Human immunodeficiency virus type 1 protease (Human immunodeficiency virus 1, UniProt Q72874). As to the kind of experiment: Binding affinity to HIV1 protease assessed as inhibition constant.
The target of experiment [2] is T1, Human immunodeficiency virus type 1 protease. As to the kind of experiment: Inhibition of recombinant HIV1 Protease.
Experiment [3] concerns Human immunodeficiency virus 1. Kind of experiment: Antiviral activity against multidrug-resistant HIV1-C infected in phytohemagglutinin-activated human PBMC cells assessed as inhibition of virus-induced cytopathic effect measured after 7 days by MTT assay. It is filed as functional, organism-based. As to conditions: Human immunodeficiency virus 1, C, 168 h. In general terms: Cytopathic effects are the visible damage that an infection or toxin causes in cultured cells.

The test system of experiment [4] is Human immunodeficiency virus 1. Kind of experiment: Antiviral activity against darunavir-resistant HIV1 10P infected in phytohemagglutinin-activated human PBMC cells assessed as inhibition of virus-induced cytopathic effect measured after 7 days by MTT assay. The experiment is classed as functional, organism-based. As to conditions: Human immunodeficiency virus 1, 10P, 168 h.

Experiment [5] deals with Human immunodeficiency virus 1. As to the kind of experiment: Antiviral activity against multidrug-resistant HIV1-JSL infected in phytohemagglutinin-activated human PBMC cells assessed as inhibition of virus-induced cytopathic effect measured after 7 days by MTT assay. It is filed as functional, organism-based. As to conditions: Human immunodeficiency virus 1, JSL, 168 h.

For experiment [6], the system named is Human immunodeficiency virus 1. Kind of experiment: Antiviral activity against darunavir-resistant HIV1 20P infected in phytohemagglutinin-activated human PBMC cells assessed as inhibition of virus-induced cytopathic effect measured after 7 days by MTT assay. As to conditions: Human immunodeficiency virus 1, 20P, 168 h. The experiment is classed as functional, organism-based.

In experiment [7] the test system is Human immunodeficiency virus 1. Kind of experiment: Antiviral activity against multidrug-resistant HIV1-TM infected in phytohemagglutinin-activated human PBMC cells assessed as inhibition of virus-induced cytopathic effect measured after 7 days by MTT assay. As to conditions: Human immunodeficiency virus 1, TM, 168 h. The experiment is classed as functional, organism-based.

The subject of experiment [8] is Human immunodeficiency virus 1. Kind of experiment: Antiviral activity against multidrug-resistant HIV1-B infected in phytohemagglutinin-activated human PBMC cells assessed as inhibition of virus-induced cytopathic effect measured after 7 days by MTT assay. It is filed as functional, organism-based. As to conditions: Human immunodeficiency virus 1, B, 168 h.
Experiment [9] concerns Human immunodeficiency virus 1. Kind of experiment: Antiviral activity against multidrug-resistant HIV1-G infected in phytohemagglutinin-activated human PBMC cells assessed as inhibition of virus-induced cytopathic effect measured after 7 days by MTT assay. As to conditions: Human immunodeficiency virus 1, G, 168 h. The experiment is classed as functional, organism-based.

In experiment [10] the test system is Human immunodeficiency virus 1. Kind of experiment: Antiviral activity against multidrug-resistant HIV1-MM infected in phytohemagglutinin-activated human PBMC cells assessed as inhibition of virus-induced cytopathic effect measured after 7 days by MTT assay. It is filed as functional, organism-based. As to conditions: Human immunodeficiency virus 1, MM, 168 h.

Experiment [11] relates to Human immunodeficiency virus 1. As to the kind of experiment: Antiviral activity against wild type HIV1 ERS104pre infected in human PBMC cells assessed as inhibition of virus-induced cytopathic effect measured after 7 days by MTT assay. It is filed as functional, organism-based. As to conditions: Human immunodeficiency virus 1, ERS104pre, 168 h.
The subject of experiment [12] is Human immunodeficiency virus 1. As to the kind of experiment: Ratio of EC50 for antiviral activity against HIV1-JSL to EC50 for antiviral activity against wild type HIV1 ERS104pre. It is filed as functional.
For experiment [13], the system named is Human immunodeficiency virus 1. As to the kind of experiment: Ratio of EC50 for antiviral activity against HIV1-TM to EC50 for antiviral activity against wild type HIV1 ERS104pre. It is filed as functional.
For experiment [14], the system named is Human immunodeficiency virus 1. As to the kind of experiment: Ratio of EC50 for antiviral activity against HIV1-G to EC50 for antiviral activity against wild type HIV1 ERS104pre. The experiment is classed as functional.
Experiment [15] has as its system Human immunodeficiency virus 1. Kind of experiment: Ratio of EC50 for antiviral activity against HIV1-B to EC50 for antiviral activity against wild type HIV1 ERS104pre. It is filed as functional.
Experiment [16] relates to Human immunodeficiency virus 1. As to the kind of experiment: Ratio of EC50 for antiviral activity against HIV1-MM to EC50 for antiviral activity against wild type HIV1 ERS104pre. The experiment is classed as functional.
Experiment [17] concerns Human immunodeficiency virus 1. Kind of experiment: Ratio of EC50 for antiviral activity against HIV1-C to EC50 for antiviral activity against wild type HIV1 ERS104pre. The experiment is classed as functional.
In experiment [18] the target is T1, Human immunodeficiency virus type 1 protease. Kind of experiment: Binding affinity to wild-type HIV1 protease expressed in Escherichia coli by fluorometric assay.
In experiment [19] the test system is Human immunodeficiency virus 1. Kind of experiment: Antiviral activity against HIV1 LAI infected in human MT2 cells assessed as inhibition of virus-induced cytopathic effect by MTT assay. The experiment is classed as functional, organism-based. As to conditions: Human immunodeficiency virus 1, LAI.

The pKi is −log10 of the Ki, conventionally taken in molar units. Regarding `COc1cccc2c1C(=O)C[C@H]2NC(=O)[C@H](OCc1cccc(Br)c1)[C@H](O)[C@@H](O)[C@@H](OCc1cccc(Br)c1)C(=O)N[C@H]1c2ccccc2C[C@H]1O`, the pKi in experiment [1] was 7.96.

A word on the pIC50: it is the IC50 on a negative log10 scale, so that one unit is a factor of ten. With `CC(C)C[C@H](NC(=O)[C@@H](NC(=O)CCCCCCCCCCCCCCC(=O)N[C@@H](CC(N)=O)C(=O)N[C@@H](Cc1ccccc1)C(=O)O)[C@@H](C)O)C(=O)NCCc1ccccc1` (I: Asn-Phe-OH / II: Thr-Leu-NHPhenethyl; linker I:N-II:N via C16 diacid), the pIC50 in experiment [2] was 5.24.

The pEC50 is the negative decadic logarithm of the EC50, by convention in mol/L. Regarding `CC(C)CN(C[C@@H](O)[C@H](Cc1ccccc1)NC(=O)O[C@H]1CCOC1)S(=O)(=O)c1ccc(N)cc1`, the pEC50 in experiment [3] is 6.68; in [4], less than 6.00; in [5] it was 6.37; in experiment [6] it was less than 6.00; in experiment [7], 6.52; in experiment [8] it was 6.44. For the same compound, the values for the pEC50 in experiment [9], in experiment [10] and in experiment [11] were 6.51, 6.57 and 7.54, respectively.

On to `CC(C)CN(C[C@@H](O)[C@H](Cc1ccccc1)NC(=O)O[C@H]1CO[C@H]2OCC[C@H]21)S(=O)(=O)c1ccc2c(c1)OCO2`, for which the pEC50 is 8.57 in experiment [3]; 8.22 in experiment [5]; 8.49 in experiment [7]; 8.41 in [8]; 8.47 in experiment [9]; 8.42 in experiment [10]. In addition, the pEC50 in [11] was 9.30. Also, the “Ratio EC50” value in experiment [12] is recorded as 12; in [13], 6; in experiment [14] it was 7; in experiment [15] it was 8; in [16] it was 8; in experiment [17] it was 5.

Take `O=C(Cc1cccc2ccccc12)O[C@H]1CNC[C@@H]1OC(=O)Cc1cccc2ccccc12`: the pKi in experiment [1] was 4.70.

On to `CCC(C)[C@H](NC(=O)[C@H](CCSC)NC(=O)CCCCCCCCCCCCCCC(=O)N[C@@H](CC(N)=O)C(=O)N[C@@H](Cc1ccccc1)C(=O)O)C(=O)N[C@@H](Cc1ccc(N)cc1)C(N)=O` (stereo partly drawn) ({Phe-Asn-C16 diacid}-Met-[Ile(3ξ)]-[Phe(4-NH2)]-NH2), for which the pKi in [1] is 7.07.

For `COC(=O)[C@@H](NC(=O)[C@H](CC(C)C)NC(=O)[C@@H](NC(=O)CCCOc1ccc2ccc(OCCCC(=O)N[C@H](CCCCNC(=O)OCc3ccccc3)C(=O)NNC(=O)c3cc(NC(C)=O)ccc3OC)cc2c1)C(C)C)C(C)C`, the pKi in experiment [1] was 7.22.

Take `C[C@H](Cc1cc2c(cc1O)OCO2)[C@H](C)Cc1cc2c(cc1O)OCO2`: the pIC50 in experiment [2] is 5.25.

Take `NC(=O)CN(Cc1ccc(N)cc1)C(=O)CN(CC1CCCCC1)C(=O)CN(Cc1ccc(N)cc1)C(=O)CCCCCCCCCCCCCCC(=O)N(CC(=O)N(CC(=O)O)Cc1ccccc1)Cc1ccc(N)cc1`: in [1], the pKi was 6.87.

Consider `CC(C)C[C@H](NC(=O)[C@@H](NC(=O)CCCCCCCCCCCCCCC(=O)N[C@@H](CC(N)=O)C(=O)N[C@@H](Cc1ccccc1)C(=O)O)[C@@H](C)O)C(=O)NCCc1cccc(O)c1`, for which the negative-log IC50 (pIC50) in experiment [2] is 5.95.

Turning to `Cc1c(O)cccc1C(=O)N[C@@H](CSc1ccccc1)[C@H](O)CN1C[C@H]2CCCC[C@H]2C[C@H]1C(=O)NC(C)(C)C`, in experiment [3], the pEC50 was 6.60.

For the compound `COc1ccc(S(=O)(=O)N(CC(C)C)C[C@@H](O)[C@H](Cc2ccccc2)NC(=O)O[C@H]2CO[C@H]3C[C@@H]4OCC[C@@H]4[C@H]32)cc1`, in experiment [1], the pKi was 8.86.

Turning to `CCC(C)N(CC(=O)N(CC(N)=O)Cc1ccc(N)cc1)C(=O)CN(CCSC)C(=O)CCCCCCCCCCCCCCC(=O)N(CC(N)=O)CC(=O)N(CC(=O)O)Cc1ccccc1` (centres undefined), the pKi in experiment [1] is 6.10.

On to `CC(C)C[C@H](NC(=O)[C@@H](NC(=O)CCCCCCCCCCCCCCC(=O)N[C@@H](CC(N)=O)C(=O)N[C@@H](Cc1ccccc1)C(=O)O)[C@@H](C)O)C(=O)NCCc1ccc(Oc2ccc(O)cc2)cc1`, for which, in [2], the pIC50 is 7.02.

`O=C1C[C@@H](NC(=O)[C@H](OCc2cccc(Br)c2)[C@H](O)[C@@H](O)[C@@H](OCc2cccc(Br)c2)C(=O)N[C@H]2c3ccccc3C[C@H]2O)c2ccccc21`: the pKi in [1] is 7.72.

`O=C(Cc1cccc2ccccc12)Nc1ccccc1CN1C[C@H](O)[C@@H](O)CN(Cc2ccccc2Br)S1(=O)=O` had a pKi in experiment [18] of 6.55.

On to `COc1ccc(S(=O)(=O)N(CC(C)C)C[C@@H](O)[C@@H]2Cc3ccc(cc3)OC/C=C/CCc3c(O)cccc3C(=O)N2)cc1`, for which the pIC50 in experiment [19] is 6.68. The pKi in experiment [1] is 9.70.

Compound `O=S1(=O)N(Cc2ccccc2-c2cc3ccccc3o2)C[C@H](O)[C@@H](O)CN1Cc1ccccc1-c1cc2ccccc2o1` had a negative logarithm of the Ki (pKi) in [18] of 6.28.

Regarding `O=C(Cc1cccc2ccccc12)Nc1ccccc1CN1C[C@H](O)[C@@H](O)CN(Cc2ccccc2NC(=O)Cc2cccc3ccccc23)S1(=O)=O`, the pKi in experiment [18] is 7.70.

For `CC(C)C[C@H](NC(=O)[C@@H](NC(=O)CCCCCCCCCCCCCCC(=O)N[C@@H](CC(N)=O)C(=O)N[C@@H](Cc1ccccc1)C(=O)O)[C@@H](C)O)C(=O)NCCc1ccc(N)cc1`, the pIC50 in experiment [2] was 6.19.

With `COC(=O)[C@@H](NC(=O)[C@H](CC(C)C)NC(=O)[C@@H](NC(=O)CCCOc1ccc2ccc(OCCCC(=O)N[C@H](CCCCNC(=O)OCc3ccccc3)C(=O)Nc3cccn(CC(N)=O)c3=O)cc2c1)C(C)C)C(C)C`, in experiment [1], the pKi is 7.40.

In experiment [18], `O=C(Cc1cccc2ccccc12)Nc1ccccc1CN1C[C@H](O)[C@@H](O)CN(Cc2ccccc2)S1(=O)=O` gave a pKi of 6.85.

In the case of `COc1ccc(S(=O)(=O)N(CC(C)C)C[C@@H](O)[C@H](Cc2ccccc2)n2cc(COC(=O)N[C@H]3c4ccccc4C[C@H]3O)nn2)cc1`, the pIC50 in [2] was 8.22. Besides, the pKi in [1] is 8.77.

On to `CC(C)(C)NC(=O)[C@@H]1C[C@@H]2CCCC[C@@H]2CN1C[C@@H](O)[C@H](Cc1ccccc1)NC(=O)[C@H](CC(N)=O)NC(=O)c1ccc2ccccc2n1`, for which the pEC50 was 7.46 in [3]; 6.54 in experiment [5]; 7.00 in experiment [7]; 6.57 in experiment [8]; 7.48 in experiment [9]; 6.96 in experiment [10]. Moreover, the pEC50 in experiment [11] was 8.40.

For the compound `COc1ccc(S(=O)(=O)N(CC(C)C)C[C@@H](O)[C@H](Cc2ccccc2)n2cc(CNC(=O)c3ccc(CNC(=O)OC(C)(C)C)cc3)nn2)cc1`, the pIC50 in experiment [2] is 7.89. The pKi in [1] is 8.40.

As for `COc1ccc(S(=O)(=O)N(CC(C)C)C[C@@H](O)[C@H](Cc2ccccc2)NC(=O)O[C@@H]2CO[C@@H]3O[C@H]4OCC[C@H]4[C@@H]32)cc1`, the pEC50 in [3] is 6.29; in [4], less than 6.00; in experiment [5], less than 6.00; in experiment [6], less than 6.00; in experiment [7] it was 6.28; in experiment [8] it was 6.21. The values for the pEC50 in experiment [9], in experiment [10] and in experiment [11] were 6.18, 6.10 and 6.46, respectively. In addition, the “Ratio EC50” value in experiment [12] is on record as greater than 3; in experiment [13] it was 2; in experiment [14], 2; in [15] it was 2; in experiment [16], 2; in [17], 1.
